Measurements reported in US20230122344A1, “ANTAGONISTS OF THE MUSCARINIC ACETYLCHOLINE RECEPTOR M4” (Vanderbilt University, priority 2019, published 2023).

Target: T1, Human M4 (Homo sapiens, UniProt P08173)
T1 construct: expressed in transfected cells; host or cells: CHO-K1 (ATCC), co-transfected with chimeric G protein Gqi5
T1 sequence (P08173 1-479): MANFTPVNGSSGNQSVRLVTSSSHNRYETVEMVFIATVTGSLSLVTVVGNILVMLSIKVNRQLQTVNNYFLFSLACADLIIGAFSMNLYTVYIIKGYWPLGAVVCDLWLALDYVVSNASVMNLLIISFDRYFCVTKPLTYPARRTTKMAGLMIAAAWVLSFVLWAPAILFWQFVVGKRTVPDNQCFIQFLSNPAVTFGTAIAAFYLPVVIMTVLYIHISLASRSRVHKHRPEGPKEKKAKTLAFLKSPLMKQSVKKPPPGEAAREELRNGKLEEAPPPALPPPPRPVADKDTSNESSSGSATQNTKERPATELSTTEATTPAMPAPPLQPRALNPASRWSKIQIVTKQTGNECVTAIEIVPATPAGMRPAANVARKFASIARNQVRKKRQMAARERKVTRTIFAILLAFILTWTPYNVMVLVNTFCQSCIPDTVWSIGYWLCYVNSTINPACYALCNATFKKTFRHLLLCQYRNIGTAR
Experiment: mAChR M4 cell-based functional assay (calcium flux, antagonism of EC80 acetylcholine response)
Conditions: M4/Gqi5/CHO-K1 cells; for remaining activity at 30 µM: CHO-K1, % ACh maximum at 30 μM, read-out: Human M4 Emin; for IC50: decrease of response elicited by EC80 acetylcholine
Experimental: Human or rat M4 cDNA, along with the chimeric G protein Gqi5, were transfected into Chinese hamster ovary (CHO-K1) cells purchased from the American Type Culture Collection using Lipofectamine2000. M4/Gqi5/CHO cells were grown in Ham's F-12 medium containing 10% heat-inactivated fetal bovine serum (FBS), 20 mM HEPES, 500 μg/mL G418 sulfate, and 200 μg/mL Hygromycin B.
For high throughput measurement of agonist-evoked increases in intracellular calcium, CHO-K1 cells stably expressing muscarinic receptors were plated in growth medium lacking G418 and hygromycin at 15,000 cells/20 μL/well in Greiner 384-well black-walled, tissue culture (TC)-treated, clear-bottom plates (VWR). Cells were incubated overnight at 37° C. and 5% CO2. The next day, cells were washed using an ELX 405 (BioTek) with assay buffer; the final volume was then aspirated to 20 μL. Next, 20 μL of a 2.3 μM stock of Fluo-4/acetoxymethyl ester (Invitrogen, Carlsbad, Calif.), prepared as a 2.3 mM stock in DMSO and mixed in a 1:1 ratio with 10% (w/v) Pluronic F-127 and diluted in assay buffer, was added to the wells and the cell plates were incubated for 50 min at 37° C. and 5% CO2. Dye was removed by washing with the ELX 405 and the final volume was aspirated to 20 μL. Compound master plates were formatted in a 10 point concentration-response curve (CRC) format (1:3 dilutions) in 100% DMSO with a starting concentration of 10 or 1 mM using a BRAVO liquid handler (Agilent). Test compound CRCs were then transferred to daughter plates (240 nL) using the Echo acoustic plate reformatter (Labcyte, Sunnyvale, Calif.) and then diluted into assay buffer (40 μL) to a 2× stock using a Thermo Fisher Combi (Thermo Fisher Scientific, Waltham, Mass.).
Calcium flux was measured using the Functional Drug Screening System (FDSS) 6000 or 7000 (Hamamatsu Corporation, Tokyo, Japan) as an increase in the fluorescent static ratio. Compounds were applied to cells (20 μL, 2×) using the automated system of the FDSS at 2 seconds into the protocol and the data were collected at 1 Hz. At 143 s, 10 μL of an EC20 concentration of the muscarinic receptor agonist acetylcholine was added (5×), followed by the addition of 12 μL of an EC80 concentration of acetylcholine at the 268 s time point (5×). Agonist activity was analyzed as a concentration-dependent increase in calcium mobilization upon compound addition. Positive allosteric modulator activity was analyzed as a concentration-dependent increase in the EC20 acetylcholine response. Antagonist activity was analyzed as a concentration-dependent decrease in the EC80 acetylcholine response; for the purposes of the tables herein, an IC50 (inhibitory concentration 50) was calculated as a concentration-dependent decrease of the response elicited by an EC80 concentration of acetylcholine. Concentration-response curves were generated using a four-parameter logistical equation in XLFit curve fitting software (IDBS, Bridgewater, N.J.) for Excel (Microsoft, Redmond, Wash.) or Prism (GraphPad Software, Inc., San Diego, Calif.) or the Dotmatics software platform (Dotmatics, Bishop's Stortford, UK).
Compounds were synthesized as described above. Activity (IC50 and Emin) was determined in the mAChR M4 cell-based functional assay as described above and the data are shown in Table 2.

| Structure (SMILES) | remaining activity at 30 µM | IC50 |
| --- | --- | --- |
| COc1cc(-c2cc3cn(C)nc3cc2F)nnc1N[C@H]1C[C@@H]2CN(CC3CCOCC3)C[C@@H]2C1 [compound 6, (3aR,5s,6aS)-N-(6-(6-fluoro-2-methyl-2H-indazol-5-yl)-4-methoxypyridazin-3-yl)-2-((tetrahydro-2H-pyran-4-yl)methyl)octahydrocyclopenta[c]pyrrol-5-amine] | 4% | 44 nM |
| COc1cc(-c2ccccc2F)nnc1N[C@H]1C[C@@H]2CN(CC3CCOCC3)C[C@@H]2C1 [compound 2, (3aR,5s,6aS)-N-(6-(2-fluorophenyl)-4-methoxypyridazin-3-yl)-2-((tetrahydro-2H-pyran-4-yl)methyl)octahydrocyclopenta[c]pyrrol-5-amine] | 3% | 10.5 nM |
| [2H]C([2H])(C1CCOCC1)N1C[C@H]2C[C@H](Nc3nnc(-c4ccc5nn(C)cc5c4)cc3C)C[C@H]2C1 [compound 22, (3aR,5s,6aS)-N-(4-methyl-6-(2-methyl-2H-indazol-5-yl)pyridazin-3-yl)-2-((tetrahydro-2H-pyran-4-yl)methyl-d2)octahydrocyclopenta[c]pyrrol-5-amine] | 4% | 1.82 nM |
| Cc1c(-c2cc(F)ccc2Cl)nnc(N[C@H]2C[C@@H]3CN(CC4CCOCC4)C[C@@H]3C2)c1C#N [compound 67, 6-(2-chloro-5-fluorophenyl)-5-methyl-3-(((3aR,5s,6aS)-2-((tetrahydro-2H-pyran-4-yl)methyl)octahydrocyclopenta[c]pyrrol-5-yl)amino)pyridazine-4-carbonitrile] | 2% | 0.83 nM |
| [2H]C([2H])(C1CCOCC1)N1C[C@H]2C[C@H](Nc3cc(C4(C(F)(F)F)CC4)c(-c4cc(F)c(F)cc4F)nn3)C[C@H]2C1 [compound 38, (3aR,5s,6aS)-2-((tetrahydro-2H-pyran-4-yl)methyl-d2)-N-(5-(1-(trifluoromethyl)cyclopropyl)-6-(2,4,5-trifluorophenyl)pyridazin-3-yl)octahydrocyclopenta[c]pyrrol-5-amine] | 3% | 46.3 nM |
| COc1cc(-c2ccc3nn(C)cc3c2C)nnc1N[C@H]1C[C@@H]2CN(CC3CCOCC3)C[C@@H]2C1 [compound 8, (3aR,5s,6aS)-N-(6-(2,4-dimethyl-2H-indazol-5-yl)-4-methoxypyridazin-3-yl)-2-((tetrahydro-2H-pyran-4-yl)methyl)octahydrocyclopenta[c]pyrrol-5-amine] | 4% | 2.04 nM |
| Fc1ccc(Cl)c(-c2nnc(N[C@H]3C[C@@H]4CN(CC5CCOCC5)C[C@@H]4C3)cc2C(F)F)c1 [compound 44, (3aR,5s,6aS)-N-(6-(2-chloro-5-fluorophenyl)-5-(difluoromethyl)pyridazin-3-yl)-2-((tetrahydro-2H-pyran-4-yl)methyl)octahydrocyclopenta[c]pyrrol-5-amine] | 2% | 0.65 nM |
| Cc1ccc(C(F)(F)F)cc1-c1cc(C(F)F)c(N[C@H]2C[C@@H]3CN(CC4CCOCC4)C[C@@H]3C2)nn1 [compound 82, (3aR,5s,6aS)-N-(4-(difluoromethyl)-6-(2-methyl-5-(trifluoromethyl)phenyl)pyridazin-3-yl)-2-((tetrahydro-2H-pyran-4-yl)methyl)octahydrocyclopenta[c]pyrrol-5-amine] | 4% | 49 nM |
| Cc1ccc(F)cc1-c1cc(-c2cc(F)ccc2C)c(N[C@H]2C[C@@H]3CN(CC4CCOCC4)C[C@@H]3C2)nn1 [compound 10, (3aR,5s,6aS)-N-(4,6-bis(5-fluoro-2-methylphenyl)pyridazin-3-yl)-2-((tetrahydro-2H-pyran-4-yl)methyl)octahydrocyclopenta[c]pyrrol-5-amine] | 3% | 384 nM |
| [2H]C([2H])(C1CCOCC1)N1C[C@H]2C[C@H](Nc3nnc(-c4ccccc4)c(C)c3C(F)(F)F)C[C@H]2C1 [compound 76, (3aR,5s,6aS)-N-(5-methyl-6-phenyl-4-(trifluoromethyl)pyridazin-3-yl)-2-((tetrahydro-2H-pyran-4-yl)methyl-d2)octahydrocyclopenta[c]pyrrol-5-amine] | 3% | 12.1 nM |

Results, then the compound that gave them:

| remaining activity at 30 µM | IC50 | Structure (SMILES) |
| --- | --- | --- |
| 3% | 6.42 nM | Fc1ccc(F)c(-c2cc(C(F)F)c(N[C@H]3C[C@@H]4CN(CC5CCOCC5)C[C@@H]4C3)nn2)c1 [compound 58, (3aR,5s,6aS)-N-(4-(difluoromethyl)-6-(2,5-difluorophenyl)pyridazin-3-yl)-2-((tetrahydro-2H-pyran-4-yl)methyl)octahydrocyclopenta[c]pyrrol-5-amine] |
| 4% | 719 nM | [2H]C([2H])(C1CCOCC1)N1C[C@H]2C[C@H](Nc3nnc(-c4cc(F)ccc4F)cc3C3CC3)C[C@H]2C1 [compound 27, (3aR,5s,6aS)-N-(4-cyclopropyl-6-(2,5-difluorophenyl)pyridazin-3-yl)-2-((tetrahydro-2H-pyran-4-yl)methyl-d2)octahydrocyclopenta[c]pyrrol-5-amine] |
| 4% | 180 nM | Fc1ccc(F)c(-c2cc(C(F)F)c(N[C@H]3C[C@@H]4CN(C[C@H]5COCCO5)C[C@@H]4C3)nn2)c1 [compound 81, (3aR,5R,6aS)-2-(((S)-1,4-dioxan-2-yl)methyl)-N-(4-(difluoromethyl)-6-(2,5-difluorophenyl)pyridazin-3-yl)octahydrocyclopenta[c]pyrrol-5-amine] |
| 3% | 12 nM | COc1cc(-c2cc(F)ccc2F)nnc1N[C@H]1C[C@@H]2CN(CC3CCOCC3)C[C@@H]2C1 [compound 4, (3aR,5s,6aS)-N-(6-(2,5-difluorophenyl)-4-methoxypyridazin-3-yl)-2-((tetrahydro-2H-pyran-4-yl)methyl)octahydrocyclopenta[c]pyrrol-5-amine] |
| 3% | 7.69 nM | Cc1c(-c2cc(F)ccc2F)nnc(N[C@H]2C[C@@H]3CN(CC4CCOCC4)C[C@@H]3C2)c1C#N [compound 64, 6-(2,5-difluorophenyl)-5-methyl-3-(((3aR,5s,6aS)-2-((tetrahydro-2H-pyran-4-yl)methyl)octahydrocyclopenta[c]pyrrol-5-yl)amino)pyridazine-4-carbonitrile] |
| 2% | 5.05 nM | [2H]C([2H])(C1CCOCC1)N1C[C@H]2C[C@H](Nc3nnc(-c4cc(F)cc(F)c4F)cc3C3CC3)C[C@H]2C1 [compound 34, (3aR,5s,6aS)-N-(4-cyclopropyl-6-(2,3,5-trifluorophenyl)pyridazin-3-yl)-2-((tetrahydro-2H-pyran-4-yl)methyl-d2)octahydrocyclopenta[c]pyrrol-5-amine] |
